Measured values published in the NIST ThermoML archive (doi:10.1021/acs.jced.6b00888).

Test: wn = mass fraction of the nth substance listed
Details: 101.3 kPa, Liquid, Vibrating tube method

CN(C)CCO [2-(N,N-dimethylamino)ethanol] + O
mass density [kg/m3]
Details | w1 = 0.1 | w1 = 0.2 | w1 = 0.3 | w1 = 0.49 | w1 = 0.64 | w1 = 0.69 | w1 = 0.79 | w1 = 0.9 | w1 = 1
293.15 K | 994.8 | 992.8 | 990.8 | 981.7 | 963 | 955.3 | 935.1 | 911.3 | 882.2
298.15 K | 993.3 | 990.8 | 988.1 | 978 | 959 | 951.3 | 931.1 | 906.9 | 884
303.15 K | 991.6 | 988.6 | 985.2 | 974.2 | 954.9 | 947.2 | 926.9 | 902.2 | 879.8
308.15 K | 989.7 | 986.2 | 982.2 | 970.4 | 950.8 | 943 | 922.7 | 897.9 | 875.5
313.15 K | 987.6 | 983.6 | 979.1 | 966.5 | 946.6 | 938.8 | 918.5 | 893.5 | 871.2
318.15 K | 985.3 | 980.9 | 975.8 | 962.6 | 942.4 | 934.5 | 914.2 | 889.1 | 866.8
323.15 K | 982.9 | 978.4 | 972.5 | 958.6 | 938 | 930.1 | 909.8 | 884 | 862.4
328.15 K | 980.3 | 975.1 | 969.1 | 954.5 | 933.7 | 925.7 | 905.4 | 879.3 | 858
333.15 K | 977.6 | 972 | 965.5 | 950.3 | 929.2 | 921.2 | 900.9 | 874.8 | 853.5
338.15 K | 974.7 | 968.8 | 961.9 | 946.1 | 924.7 | 916.7 | 896.4 | 870.4 | 849
343.15 K | 971.7 | 965.5 | 958.2 | 941.8 | 920.2 | 912.1 | 891.8 | 865.8 | 844.4
